Where two headings read alike, the source gives them in different places. No end group written: not given here.

Series [1] deals with spontaneously hypertensive rats (SP-SHR). The series is described as follows: Blood pressure after topical application in spontaneously hypertensive rats. The series is classed as in vivo, rat. The source says:
To evaluate the ability of the amphiphilic peptide derivatives to exert systemic biological action after topical application, spontaneously hypertensive rats (SP-SHR) and Ang-(1-7) derivatives, as prepared in Example 1 were used.
SP-SHR rats (4-5 months-old with about 270 g body weight) were instrumented for acute blood pressure measurements using tribromoethanol anesthesia. Just after the arterial catheter implantation, the interscapular region was shaved for topical application of the formulation. Blood pressure (BP) was recorded 24 h after surgery (base line BP=173.0±6.2). BP was recorded in unanesthesized animals under resting conditions for 1 h. After that, a solution of Ang-(1-7) derivatives was applied topically (20 μl at 1 mg/ml) and BP was continuously recorded for 6 h.

Another series concerns rats. As to conditions: subcutaneous, 10 mg/(kg day) for 28 days; cited from earlier work.
For series [2] the following is noted: human, in vivo; cited from earlier work.
A further series concerns dogs. Conditions: subcutaneous, 10 mg/(kg day) for 28 days; cited from earlier work.
For series [3] the following is noted: in vivo; cited from earlier work.
[4] abbreviates: topical application 20 μl at 1 mg/ml.

For “Ang-(1-7) ester derivatives: Product of Example 1: Ang-(1-7) esterified with 1-octanol, mainly diester at C-terminal and Asp carboxyl groups, plus monoesters (DRVYIHP; not fully specified (residue 1, C-terminus); also: mixture: mainly diester at C-terminal and Asp carboxyl groups, plus monoesters; UniProt P01019 25-31, looked up)”, in series [1] (setting [4]), the “duration of BP decrease” value is recorded as “up to 6 h” and the “start of BP decrease after application” value is 90 min. In addition, the “decrease of BP” value in series [1] (topical application 20 μl at 1 mg/ml, BP recorded for 6 h) is “up to 25 mmHg”.

Regarding “Asp^1-Arg^2-Val^3-Tyr^4-Ile^5-His^6-Pro^7 [Ang-(1-7)]”, the detectable toxicities entry in the series with rats and in the series on dogs was “did not lead to any detectable toxicities” each time. In addition, the results for the plasma half-life in series [2] and in series [3] were about 30 min and “about 10 min”, respectively. The “change in BP” value in series [1] (topical application) is reported as “did not cause significant change in BP”.

The record behind these values is US20160168224A1, “PROCESS FOR PREPARING AMPHIPHILIC PEPTIDE DERIVATIVES” (UNIVERSIDADE FEDERAL DE MINAS GERAIS - UFMG, priority 2013, published 2016).
